The record followed here is patent publication US5936097A, “4,9-ethano-benzo(F)isoindole derivatives as farnesyl transferase inhibitors” (Rhone-Poulenc Rorer, S.A., priority 1995, dated 1999).

pIC50: −log10 of the molar value. Structures can show the parent of a compound that is named as a salt. Where two headings read alike, the source gives them in different places.

In the experiment the target is T1, human farnesyl transferase (Homo sapiens, UniProt P49354+P49356).
T1 construct: human farnesyl transferase purified from THP1 cell cultures; endogenous in cells; host or cells: THP1 cell cultures (enzyme purified from the cells)
The experiment is described as follows: inhibition of farnesyl transferase ((3H) farnesyl transfer from (3H) FPP to p21 H-ras). It counts as biochemical. The protocol:
Farnesyl transferase activity is determined by the amount of (^3 H) farnesyl transferred from (^3 H) farnesylpyrophosphate [(^3 H) FPP] to the p21 H-ras protein. The standard reaction mixture is composed, for a final volume of […], of 50 mM Tris-HCl, 5 mM MgCl2, 5 mM dithiotreitol, 0.2% octyl b-D-glucopyranoside, 200 picomol p21 H-ras, 4.5 picomol (^3 H) FPP (activity 61000 dpm/picomol).
Reaction is initiated by adding approximately 5 ng of human farnesyl transferase purified from THP1 cell cultures. After incubation for 20 minutes at 37° C. in a microtitration plate containing 96 1-cm^3 wells per plate (Titer Plate®, Beckman), the reaction is stopped by adding 0.4 cm^3 of 0.1% SDS in methanol at 0° C. The mixture is then treated with 0.4 cm^3 of 30% trichloroacetic® acid (TCA) in methanol. The plates are left in ice for 1 hour. The precipitated contents are then retained on Filtermat®, Pharmacia), glass® fibre membranes with the filtration unit (Combi Cell Harvester®, Skatron), and rinsed with 6% trichloroacetic acid in distilled water. The membranes are dried in a microwave oven, then impregnated with scintillation medium by melting of Meltilex® (Pharmacia) under hot air, and lastly counted in cpm in a b-Plate counter® (LKB). Each test is repeated 3 times.
The unit of activity is defined as 1 picomole of (^3 H) FPP transferred to p21 H-ras in 20 minutes.
The percentage inhibition values are obtained by comparison of the tests with and without inhibitor after deduction of blanks, the IC50 values being measured on the basis of the inhibitions obtained with 9 different concentrations using Enzfitter® or Grafit® software.

Where [1] appears, read: human farnesyl transferase purified from THP1 cell cultures, p21 H-ras substrate, 20 minutes at 37° C., 9 concentrations, read-out: in vitro inhibitory activity IC50.

The term pIC50 denotes the IC50 on a negative log10 scale, so that one unit is a factor of ten. With `COc1ccccc1CC(=O)N1C[C@H]2[C@@]3(c4ccccc4)CC[C@H](c4ccccc43)[C@@]2(C(=O)NCC(=O)O)C1` (relative stereo) [Example 67, N-[(3aRS,4SR,9SR,9aRS)-4,9-ethano-2-(2-methoxy-phenyl)acetyl-9-phenyl-2,3,3a,4,9,9a-hexahydro-1H-benzo[f]isoindol-3a-yl]carbonylglycine], the pIC50 under setting [1] was 6.02. As for `O=C(Cc1ccccc1Br)N1C[C@H]2[C@@]3(c4ccccc4)CC[C@H](c4ccccc43)[C@@]2(C(=O)O)C1` (relative stereo) [Example 28, (3aRS, 4SR, 9SR, 9aRS)-4,9-ethano-2-(2-bromophenyl)acetyl-9-phenyl-2,3,3a,4,9,9a-hexahydro-1H-benzo[f]isoindole-3a-carboxylic acid], the pIC50 is 5.52.

With `Cc1ccccc1CC(=O)N1C[C@@H]2[C@]3(c4ccccc4)CC[C@@H](c4ccccc43)[C@]2(C(=O)O)C1` (relative stereo) [Example 62, (3aRS,4SR,9SR,9aRS)-4,9-Ethano-2-(2-methylphenyl)acetyl-9-phenyl-2,3,3a,4,9,9a-hexahydro-1H-benzo[f]isoindole-3a-carboxylic acid], the pIC50 was 5.94. The molecule `CSc1ccccc1CC(=O)N1CC2C3(c4ccccc4)CCC(c4ccccc43)C2(C(=O)O)C1` (single isomer, unassigned) [Example 31] gave a pIC50 of 6.21. As to `COc1ccccc1CC(=O)N1C[C@H]2[C@@]3(c4ccccc4)CC[C@H](c4ccccc43)[C@@]2(C(=O)NCC(=O)O)C1` [Example 48, N-[4,9-ethano-2-(2-methoxyphenyl)acetyl-9-phenyl-2,3,3a(S),4(R),9(R),9a(S)-hexahydro-1H-benzo[f]isoindol-3a-yl]carbonylglycine], under setting [1], the pIC50 was 6.13.

Consider `C=C(C(=O)N1C[C@H]2[C@@]3(c4ccccc4)CC[C@H](c4ccccc43)[C@@]2(C(=O)N[C@H](C(=O)OC)c2ccccc2)C1)c1ccccc1OC` [Example 72], for which the pIC50 under setting [1] was 6.16. On the same count and under the same terms, the result for `COc1ccccc1CC(=O)N1C[C@H]2[C@@]3(c4ccccc4)CC[C@H](c4ccccc43)[C@@]2(NC(=O)C(N)CCSC)C1` (stereo partly drawn) [Example 13, (3aRS, 4SR, 9SR, 9aRS)-3a-methionylamino-4,9-ethano-2-(2-methoxyphenyl)acetyl-9-phenyl-2,3,3a,4,9,9a-hexahydro-1H-benzo[f]isoindole] reads 5.06. `COc1ccccc1CC(=O)N1C[C@H]2[C@@]3(c4ccccc4)CC[C@H](c4ccccc43)[C@@]2(C(=O)O)C1` (relative stereo) [Example 2, (3aRS, 4SR, 9SR, 9aRS)-4,9-ethano-2-(2-methoxyphenyl)acetyl-9-phenyl-2,3,3a,4,9,9a-hexahydro-1H-benzo[f]isoindole-3a-carboxylic acid] gave a pIC50 of 6.51. `COc1ccccc1CC(=O)N1C[C@H]2[C@@]3(c4ccccc4)CC[C@H](c4ccccc43)[C@@]2(CC(=O)O)C1` (relative stereo) [Example 19, (3aRS, 4SR, 9SR, 9aRS)-4,9-ethano-2-(2-methoxyphenyl)acetyl-9-phenyl-2,3,3a,4,9,9a-hexahydro-1H-benzo[f]isoindol-3a-acetic acid]: the pIC50 under setting [1] was 5.25. The same measure, in the same setting: the result for `COc1ccccc1CC(=O)N1C[C@H]2[C@@]3(c4ccccc4)CC[C@H](c4ccccc43)[C@@]2(CC(C(=O)O)C(=O)O)C1` (relative stereo) [Example 24, 2-{(3aRS, 4SR, 9SR, 9aRS)-4,9-ethano-[(2-methoxyphenyl)acetyl]-9-phenyl-1,2,3,3a,9,9a-hexahydro-1H-benzo[f]isoindole-3a-}-methylmalonic acid] reads 5.38. The same measure, in the same setting: as for `COc1ccccc1CC(=O)N1C[C@H]2[C@@]3(c4ccccc4)CC[C@H](c4ccccc43)[C@@]2(CC(=O)NCC(=O)O)C1` (relative stereo) [Example 20, N-[(3aRS, 4SR, 9SR, 9aRS)-4,9-ethano-2-(2-methoxyphenyl)acetyl-9-phenyl-2,3,3a,4,9,9a-hexahydro-1H-benzo[f]isoindol-3a-yl]acetylglycine], the figure is 5.32; as for `COc1ccccc1CC(=O)N1C[C@H]2[C@@]3(c4ccccc4)CC[C@H](c4ccccc43)[C@@]2(C(=O)NC(Cc2c[nH]cn2)C(=O)O)C1` (stereo partly drawn) [Example 8, hydrochloride of N-[(3aRS, 4SR, 9SR, 9aRS)-4,9-ethano-2-(2-methoxyphenyl)acetyl-9-phenyl-2,3,3a,4,9,9a-hexahydro-1H-benzo[f]isoindolyl-3a-carbonyl]histidine], 6.72. Consider `C=C(C(=O)N1CC2C3(c4ccccc4)CCC(c4ccccc43)C2(C(=O)N[C@H](C)c2ccccc2)C1)c1ccccc1OC` (single isomer, unassigned) [Example 9], for which, under setting [1], the pIC50 was 6.72. Regarding `C=C(C(=O)N1C[C@@H]2[C@]3(c4ccccc4)CC[C@@H](c4ccccc43)[C@]2(C(=O)NOC)C1)c1ccccc1OC` (racemic) [Example 44, (3aRS,4SR,9SR,9aRS)-N-methoxy-4,9-ethano-2-[2-(2-methoxyphenyl)prop-2-en-1-oyl]-9-phenyl-2,3,3a,4,9,9a-hexahydro-1H-benzo[f]isoindole-3a-carboxamide], the pIC50 under setting [1] is 6.96.

For `C=C(C(=O)N1C[C@H]2[C@@]3(c4ccccc4)CC[C@H](c4ccccc43)[C@@]2(C(=O)NCc2cccnc2)C1)c1ccccc1OC` [Example 91, (3aS,4R,9R,9aS)-N-[(3-pyridyl)methyl]-4,9-ethano-2-[(2-methoxyphenyl)prop-2-en-1-oyl]-9-phenyl-2,3,3a,4,9,9a-hexahydro-1H-benzo[f]isoindole-3a-carboxamide], the pIC50 under setting [1] was 6.80. Turning to `O=C(Cc1ccccc1OCc1ccccc1)N1C[C@@H]2[C@]3(c4ccccc4)CC[C@@H](c4ccccc43)[C@]2(C(=O)O)C1` (relative stereo) [Example 64, (3aRS,4SR,9SR,9aRS)-4,9-Ethano-2-(2-benzyloxyphenyl)acetyl-9-phenyl-2,3,3a,4,9,9a-hexahydro-1H-benzo[f]isoindole-3a-carboxylic acid], the pIC50 under setting [1] was 6.12.

For `COC(=O)[C@]12CN(C(=O)Cc3ccccc3OC)C[C@H]1[C@@]1(c3ccccc3)CC[C@@H]2c2cc(C=O)ccc21` (relative stereo) [Example 97, methyl ester of (3aRS,4SR,9SR,9aRS)-4,9-ethano-6-formyl-2-[(2-methoxyphenyl)acetyl]-9-phenyl-2,3,3a,4,9,9a-hexahydro-1H-benzo[f]isoindole-3a-carboxylic acid], under setting [1], the pIC50 was 5.40.

As for `COc1ccccc1CC(=O)N1C[C@H]2[C@@]3(c4ccccc4)CC[C@H](c4ccccc43)[C@@]2(NC=O)C1` (relative stereo) [Example 11, (3aRS, 4SR, 9SR, 9aRS)-3a-formylamino-4,9-ethano-2-(2-methoxyphenyl)acetyl-9-phenyl-2,3,3a,4,9,9a-hexahydro-1H-benzo[f]isoindole], the pIC50 under setting [1] is 5.16. Consider `O=C(Cc1cccc2c1OCCC2)N1C[C@H]2[C@@]3(c4ccccc4)CC[C@H](c4ccccc43)[C@@]2(C(=O)O)C1` (relative stereo) [Example 76, (3aRS,4SR,9SR,9aRS)-2-(8-chromanyl)acetyl-4,9-ethano-9-phenyl-2,3,3a,4,9,9a-hexahydro-1H-benzo[f]isoindole-3a-carboxylic acid], for which the pIC50 under setting [1] was 5.44. The same measure, in the same setting: the result for `COc1ccccc1CC(=O)N1C[C@H]2[C@@]3(c4ccccc4)CC[C@H](c4ccccc43)[C@@]2(CP(=O)(O)O)C1` (relative stereo) [Example 23] reads 5.59; that for `C=C(C(=O)N1C[C@H]2[C@@]3(c4ccccc4)CC[C@H](c4ccccc43)[C@@]2(C(=O)NCc2ccccc2)C1)c1ccccc1OC` [Example 71], 6.30. On the same count and under the same terms, as for `COc1cccc(CC(=O)N2C[C@@H]3[C@]4(c5ccccc5)CC[C@@H](c5ccccc54)[C@]3(C(=O)O)C2)c1OC` (relative stereo) [Example 36, (3aRS, 4SR, 9SR, 9aRS)-4,9-ethano-2-(2,3-dimethoxyphenyl)acetyl-9-phenyl-2,3,3a,4,9,9a-hexahydro-1H-benzo[f]isoindole-3a-carboxylic acid], the figure is 5.43. For the molecule `CCOc1ccccc1CC(=O)N1C[C@H]2[C@@]3(c4ccccc4)CC[C@H](c4ccccc43)[C@@]2(C(=O)O)C1` [Example 75], the pIC50 was 6.43.

As for `C=C(C(=O)N1C[C@H]2[C@@]3(c4ccccc4)CC[C@H](c4ccccc43)[C@@]2(C(=O)NCc2ccc(OC)c(OC)c2)C1)c1ccccc1OC` [Example 90, (3aS,4R,9R,9aS)-N-(3,4-dimethoxybenzyl)-4,9-ethano-2-[(2-methoxyphenyl)prop-2-en-1-oyl]-9-phenyl-2,3,3a,4,9,9a-hexahydro-1H-benzo[f]isoindole-3a-carboxamide], the pIC50 under setting [1] is 6.01. On the same count and under the same terms, the result for `C/C=C(/C(=O)N1C[C@H]2[C@@]3(c4ccccc4)CC[C@H](c4ccccc43)[C@@]2(C(=O)OC)C1)c1ccccc1OC` (relative stereo) [Example 77, methyl ester of (3aRS,4SR,9SR,9aRS)-4,9-ethano-2-[2(E)-(2-methoxyphenyl)-2-butenoyl]-9-phenyl-2,3,3a,4,9,9a-hexahydro-1H-benzo[f]isoindole-3a-carboxylic acid] reads 5.17.
